From US5972901A, “Serpin enzyme complex receptor--mediated gene transfer” (Case Western Reserve University, priority 1996, dated 1999)

Legend:
SEC receptor [1] = experiment: 125I-C105Y cell surface SEC receptor binding, Scatchard analysis; parameters: species or system human; conditions: for Kd: 4° C.
Description: Peptide C105Y was radio-iodinated by a modification of the chloramine T method [Hunter and Greenwood (1962) Nature 194:49] as follows. Briefly, approximately 50 μg of the C105Y peptide in 20 μl PBS was mixed with 20 μl chloramine T (120 mg/10 ml) and 1 mCi ^125 I (DuPont-New England Nuclear, Boston, Mass.). The reaction mixture was incubated for 30 seconds at room temperature and then 50 μl of sodium metabisulfite (36 mg/10 ml) was added. The labeled C105Y peptide was purified on a Sephadex G10 column (Bio-Rad) which had been blocked by application of 3 mg/ml BSA in PBS prior to the addition of the iodinated peptide. The specific radioactivity of ^125 I peptide C105Y ranged between 3,500 and 11,700 dpm/ng.
HuH7 cells and two populations of HepG2 cells were studied. Cells were plated in 24 well tissue culture plates, allowed to become confluent, then thoroughly washed with phosphate-buffered saline containing 1 mM CaCl2 and 2.5 mM MgCl2 (Ca^2+ /Mg^2+ PBS) and incubated at 4° C. for 2 h with ^125 I-labeled ligand (e.g., C105Y) at concentrations of 12.5 to 400 nM in the absence or presence of 200 fold excess unlabeled ligand and diluted in binding medium (DMEM containing 50 mM HEPES, 0.1 mg/ml cytochrome c, 0.01% Tween 80, 2 mg/ml bovine serum albumin). The cells were then rinsed in Ca^2+ Mg^2+ PBS, homogenized in 1 N NaOH, and cell-associated radioactivity determined. Non-specific binding was determined by incubating cells with a 200 fold molar excess of cold ligand. Specific binding was defined as the difference between total and non-specific binding. Binding parameters were determined by Scatchard analysis. Binding assays were performed on all three cell lines [HuH7, HepG2 (high), and HepG2 (low)] simultaneously with the same batch of iodinated C105Y peptide so that the proper comparisons could be made.
In FIG. 22, the specific binding (expressed as cpm/one million cells) is plotted against the concentration of iodinated C105Y ppeptide (nM). Traces are shown for the specific binding of ^125 I-C105Y to HuH7 cells (.smallcircle.), HepG2 (high) cells (.quadrature.) and HepG2 (low) cells (.diamond.). Specific binding was determined by subtracting […].

hepatoma cells = experiment: Cell death / viability during transfection of hepatoma cells; conditions: 10 fold molar excess
Description: After addition of the complex and/or Lipofectin®, all cells were incubated at 37° C. for six hours. Cells were then rinsed with Ca^2+ /Mg^2+ PBS and fresh growth media added and incubated at 37° C. (with a change of media every 2 days) until the appropriate functional assay was performed. Competition experiments were conducted by transfecting HepG2 (high) cells with 1.11 pmol C1 315 carrier condensed DNA in the presence and absence of a 10 fold excess free C1315 peptide. All transfections were done in duplicate.

SEC receptor [2] = experiment: Binding of fluorescein labeled peptide to hepatoma cells (fluorescent cells); type: cell-based, human
Description: HuH7, HepG2 (high) and HepG2 (low) cells were plated in six well plates and transfected as described above. Fluorescein labeling was carried out with fluorescein isothiocyanate, as described previously [Mann and Fish (1972) Methods of Enzymology 26:28-42]. Briefly, the C1315 peptide (145 μg) was incubated with 1 mg of fluorescein isothiocyanate for 1 hr at room temperature. Following incubation, 10 mg/ml glycine was added to destroy excess reagent, the pH was adjusted to 6.0 by the addition of 1N HCl and the labeled peptide was then purified on a Sephadex G10 column (Bio-Rad).
Two days following transfection, cells were washed with Ca^2+ /Mg^2+ PBS, incubated with 100 nM fluorescein labeled C1315 peptide and diluted in binding buffer (DMEM containing 50 mM Hepes, 0.1 mg/ml cytochrome c, 0.01% Tween 80, 2 mg/ml bovine serum albumin) at 4° C. Individual cells were imaged on a Zeiss axiovert 35 microscope at an excitation wavelength of 493.5 nm and a measurement wavelength of 530 nm. Digital images were captured by a cooled CCD camera model CH250 for 25 seconds (Photometrics, Ltd., Tucson, Ariz.) and quantified by a Nu 2000 camera controller board (Photometrics) with a Macintosh Quadra 900 configuration. Data was processed with Oncor image software (Oncor Imaging, Rockville, Md.).
Both HuH7 and HepG2 cell lines were transfected with the pCMV lac Z II plasmid coding for the β-galactosidase protein as a complex with the C1315 peptide carrier or using Lipofectin®, as described above; three days after transfection, the cells were harvested and β-galactosidaseactivity was determined. Cells staining blue represent cells expressing β-galactosidase; fluorescent cells represent cells which bound the fluoresceinated C105Y peptide. Cells which were counted as blue or fluorescent were intensely stained. The average % values represent the number of cells which were blue or fluorescent per 100 randomly selected cells. The results represent 6 independent experiments conducted. […]

Description for total serum cholesterol: Six adult male Watanabe rabbits (2.8-3.2 Kg of bodyweight) were used in these studies. […] In order to introduce the DNA complex into the animal, we perform a single injection of 3-10 ml of the DNA-complex solution (~400-900 mM NaCl) into the marginal ear vein of the rabbit. Approximately 1.5 ml of blood was drawn from the ear artery at 4 p.m. The determination of the concentration of serum cholesterol was performed in the Clinical Laboratory of University Hospitals of Cleveland from 300 μl of serum. At different time points following the introduction of the DNA complex, a rabbit was subjected to a liver biopsy.

Compound: CSIPPEVKFNKPFVYLI [C105Y]
- binding by HuH7 cells relative to HepG2 (high), more (SEC receptor [1]): 1.5 fold
- specific binding by HepG2 (low) cells relative to HepG2 (high) cells, less (SEC receptor [1]): 7.5 fold
- specific binding by HepG2 (low) cells relative to HuH7 cells, less (SEC receptor [1]): 10 fold
- Kd (SEC receptor [1]; HepG2 (high) cells, Scatchard analysis): 50 nM
- Kd (SEC receptor [1]; HepG2 (low) cells): ~22.5 nM
- Kd (SEC receptor [1]; HuH7 cells): ~70 nM

Compound: CC[C@H](C)C(=O)O[C@H]1C[C@@H](C)C=C2C=C[C@H](C)[C@H](CC[C@@H]3C[C@@H](O)CC(=O)O3)[C@H]21 [lovastatin]
- cholesterol concentration relative to that prior to the first gene transfer (total serum cholesterol; rabbit #774, gene transfer followed by 10 mg per day for 10 weeks): 40%
- further reduction in the levels of cholesterol (total serum cholesterol; rabbit #774 after gene transfer, 10 mg per day orally for 10 weeks): 20%

Compound: CFLEAIPMSIPPEVKFNKPFVFLIIHRD [C1315]
- effect of excess free peptide on cell viability (hepatoma cells): no effect on cell viability
- Average % Fluorescent Cells (SEC receptor [2]; HepG2(high)): 20.4 ± 11.2%
- Average % Fluorescent Cells (SEC receptor [2]; HepG2(low)): 1.8 ± 1.4%
- Average % Fluorescent Cells (SEC receptor [2]; HuH7): 14.3 ± 4.0%
